Molecules are shown by their SMILES. pEC50: −log10 of the molar value. Values after ≈ are worked out from the molar mass of the structure shown.

Data set [1] can be described thus: Human Liver Microsomal Stability (Test C). In kind it is in vitro ADME. Particulars: human, liver microsomes. In outline: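 CLint (μl/min/mg protein) derived from compound depletion in human liver microsomes following a published standardized early-DMPK protocol; replicate determinations given as arithmetic mean.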
For the next data set, the target named is T1, human RXFP1 (Homo sapiens, UniProt Q9HBX9).
T1 sequence (Q9HBX9 1-757): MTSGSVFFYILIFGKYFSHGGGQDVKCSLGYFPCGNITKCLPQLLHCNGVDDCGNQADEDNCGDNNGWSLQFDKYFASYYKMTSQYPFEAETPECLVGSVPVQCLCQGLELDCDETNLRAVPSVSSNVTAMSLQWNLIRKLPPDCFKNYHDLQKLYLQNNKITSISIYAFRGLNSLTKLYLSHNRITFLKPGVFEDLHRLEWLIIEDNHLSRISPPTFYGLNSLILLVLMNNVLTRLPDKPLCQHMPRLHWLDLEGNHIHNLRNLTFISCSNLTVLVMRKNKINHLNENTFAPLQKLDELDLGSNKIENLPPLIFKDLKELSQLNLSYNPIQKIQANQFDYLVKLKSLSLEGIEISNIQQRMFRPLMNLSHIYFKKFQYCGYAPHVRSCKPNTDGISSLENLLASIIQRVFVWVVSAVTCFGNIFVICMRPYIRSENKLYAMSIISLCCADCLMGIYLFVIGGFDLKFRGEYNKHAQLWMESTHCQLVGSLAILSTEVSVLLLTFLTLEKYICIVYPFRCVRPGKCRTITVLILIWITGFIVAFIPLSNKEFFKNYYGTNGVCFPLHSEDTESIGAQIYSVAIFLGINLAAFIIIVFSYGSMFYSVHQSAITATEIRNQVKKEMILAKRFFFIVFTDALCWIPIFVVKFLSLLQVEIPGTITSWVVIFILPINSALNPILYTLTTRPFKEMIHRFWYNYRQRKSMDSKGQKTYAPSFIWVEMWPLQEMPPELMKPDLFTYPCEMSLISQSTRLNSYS
Put plainly: RXFP1 Hu cAMP (Test A). The data set is classed as cell-based. As to conditions: RXFP1 Hu cAMP; for pEC50: read-out: Test A EC50. The arrangement: expressed in transfected cells; host or cells: Jump-In T-REx CHO-K1 cells (ThermoFisher), induced with 10 ng/ml doxycycline for 24 h. In outline: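 Read-out is HTRF signal, inversely proportional to cAMP, converted to cAMP amount by standard curve. Stimulation occurred in inducible CHO-K1 cells expressing the human receptor with phosphodiesterases blocked by 0.5 mM IBMX.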

Data set [2] in a line: Human Plasma Protein Binding (Test B). Particulars: fraction unbound (fu). The data set is classed as in vitro ADME. The method, boiled down:
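Values given as % free (fu) in human plasma, using the method of Wernevik et al. (2020). For compounds tested more than once, the arithmetic mean is given.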

Data set [3] in a line: Rat Hepatocyte Stability (Test E). As to conditions: rat, hepatocytes, geometric mean if run multiple times. In kind it is in vitro ADME. In outline:
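Intrinsic clearance in rat hepatocytes, expressed as μl/min/10^6 cells, following the literature integrated DMPK panel method. Repeat determinations combined as geometric mean.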

Data set [4] in a line: Human Hepatocyte Stability (Test D). As to conditions: human, cryopreserved pooled human hepatocytes (LiverPool 10-Donor), geometric mean if run multiple times. In kind it is in vitro ADME. The method, boiled down:
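Intrinsic clearance (μL/min/10^6 cells), derived as kV/N from the log-linear loss of parent compound. Compound incubated at 37 °C with cryopreserved pooled human hepatocytes, 0.25×10^6 cells in 0.25 mL L-15; dosing solution 100 μM in acetonitrile. Singlicate incubations, cassette LC-MS; repeats reported as geometric mean.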

A short description of the next data set: Solubility (Test F). In kind it is physicochemical. As to conditions: arithmetic mean if run multiple times. The procedure:
The assay was conducted according to the Solubility Assay described in pages 164-167 of Wernevik, J. et al., “A Fully Integrated Assay Panel for Early Drug Metabolism and Pharmacokinetics Profiling”, Assay and Drug Development Technologies, 2020, 18(4), 157-179. Data are reported in Table 36 as solubility ([…]. Where the assay was run multiple times for the same compound, the arithmetic mean is reported.

In data set [1], `CCC(CC)CNC(=O)[C@H]1[C@@H]2CC[C@@H](C2)[C@H]1NC(=O)c1cc(OC2CCC(C)(C(=O)O)CC2)c(F)cc1OC` (stereo partly shown) [Example 43] returned a microsomal CLint of 33 µL/min/mg. At human RXFP1, the “Test A Sinf” value turned out to be 106% and the pEC50 was 7.08. Moreover, the “Test B Human Plasma Protein Binding (% free)” value in data set [2] was 1.3 % free. This compound showed a hepatocyte CLint in data set [3] of 25 µL/min/1e6 cells. In data set [4], this compound showed a hepatocyte CLint at 1 µM of 5 µL/min/1e6 cells. For the same compound, the solubility in the data set “Solubility (Test F)” is 770 µM (≈ 421 µg/mL).
Turning to `COc1cc(F)c(O[C@H]2CC[C@@](C)(C(=O)O)CC2)cc1C(=O)N[C@@H]1[C@H]2CC[C@H](C2)[C@@H]1C(=O)NCC1(C)CCCCC1` [Example 44], the microsomal CLint in data set [1] amounted to 110 µL/min/mg. Besides, at human RXFP1, the “Test A Sinf” value was found to be 107% and the pEC50 was 7.80. The “Test B Human Plasma Protein Binding (% free)” value in data set [2] worked out at 2.1 % free. In data set [3], the hepatocyte CLint came to 35 µL/min/1e6 cells. The hepatocyte CLint at 1 µM in data set [4] is 17 µL/min/1e6 cells. Besides, the solubility in “Solubility (Test F)” came out at 300 µM (≈ 172 µg/mL).
`COc1cc(F)c(O[C@H]2CC[C@@](C)(C(=O)O)CC2)cc1C(=O)N[C@@H]1[C@H]2CC[C@H](C2)[C@@H]1C(=O)NCC(C)(C)C#N` [Example 47]: the microsomal CLint in data set [1] is less than 3 µL/min/mg. Besides, at human RXFP1, the “Test A Sinf” value is 111% and the pEC50 is 6.70. Besides, in data set [2], the “Test B Human Plasma Protein Binding (% free)” value is on record as 21 % free. Also, in data set [3], the hepatocyte CLint stood at 17 µL/min/1e6 cells. Also, the hepatocyte CLint at 1 µM in data set [4] was less than 1 µL/min/1e6 cells. Also, in “Solubility (Test F)”, the solubility is more than 1000 µM.
In data set [1], `CCC(C)(C)CNC(=O)[C@H]1CCC[C@H]1NC(=O)c1cc(O[C@H]2CC[C@@](C)(C(=O)O)CC2)c(F)cc1OC` [Example 58, (1S,4s)-4-(5-(((1R,2S)-2-((2,2-Dimethylbutyl)carbamoyl)cyclopentyl)carbamoyl)-2-fluoro-4-methoxyphenoxy)-1-methylcyclohexane-1-carboxylic acid] gave a microsomal CLint of 6.5 µL/min/mg. Also, at human RXFP1, the “Test A Sinf” value worked out at 99% and the pEC50 is 6.59. Besides, the “Test B Human Plasma Protein Binding (% free)” value in data set [2] is 7 % free. Further, the hepatocyte CLint in data set [3] is 19 µL/min/1e6 cells. This compound displayed a hepatocyte CLint at 1 µM in data set [4] of 1.9 µL/min/1e6 cells. The solubility in the data set “Solubility (Test F)” is more than 1000 µM.
For the compound `COc1cc(C#N)c(O[C@H]2CC[C@@](C)(C(=O)O)CC2)cc1C(=O)N[C@@H]1[C@H]2CC[C@H](C2)[C@@H]1C(=O)NC(C)(C)CF` [Example 77], the microsomal CLint in data set [1] was found to be 4 µL/min/mg. Besides, on human RXFP1, the “Test A Sinf” value worked out at 108%. In addition, the “Test B Human Plasma Protein Binding (% free)” value in data set [2] turned out to be 21 % free. In data set [3], this compound gave a hepatocyte CLint of 12 µL/min/1e6 cells. Further, the intrinsic metabolic clearance (hepatocyte CLint) at 1 µM in data set [4] is 3.7 µL/min/1e6 cells. In “Solubility (Test F)”, this compound displayed a solubility of 650 µM (≈ 353 µg/mL).
`COc1cc(C#N)c(O[C@H]2CC[C@@](C)(C(=O)O)CC2)cc1C(=O)N[C@@H]1[C@H]2CC[C@H](C2)[C@@H]1C(=O)NC1(C)CCC1` [Example 90] yielded an intrinsic metabolic clearance (microsomal CLint) in data set [1] of less than 3 µL/min/mg. For the same compound, at human RXFP1, the “Test A Sinf” value is 111% and the pEC50 is 6.85. In addition, in data set [2], the “Test B Human Plasma Protein Binding (% free)” value is 14 % free. This compound registered a hepatocyte CLint in data set [3] of 18 µL/min/1e6 cells. In data set [4], the intrinsic clearance (hepatocyte CLint) at 1 µM was less than 1 µL/min/1e6 cells. For the same compound, the concentration in solution in “Solubility (Test F)” (solubility) was 800 µM (≈ 430 µg/mL).
Take `COc1cc(C#N)c(O[C@H]2CC[C@@](C)(C(=O)O)CC2)cc1C(=O)N[C@@H]1[C@H]2CC[C@H](C2)[C@@H]1C(=O)NCC1(C)CC1` [Example 98]: in data set [1], the microsomal CLint turned out to be 8.7 µL/min/mg. Further, on human RXFP1, the “Test A Sinf” value worked out at 133% and the pEC50 was 7.26. Also, in data set [2], the “Test B Human Plasma Protein Binding (% free)” value is given as 13 % free. In addition, the hepatocyte CLint in data set [3] stood at 22 µL/min/1e6 cells. For the same compound, the hepatocyte CLint at 1 µM in data set [4] came out at 4.9 µL/min/1e6 cells. For the same compound, in the data set “Solubility (Test F)”, the solubility amounted to 810 µM (≈ 436 µg/mL).
As to `COc1cc(C#N)c(O[C@H]2CC[C@@](C)(C(=O)O)CC2)cc1C(=O)N[C@@H]1[C@H]2CC[C@H](C2)[C@@H]1C(=O)NC(C)(C)C` [Example 99], the microsomal CLint in data set [1] worked out at 6.2 µL/min/mg. Besides, on human RXFP1, the “Test A Sinf” value was 113% and the pEC50 is 6.85. Also, the “Test B Human Plasma Protein Binding (% free)” value in data set [2] amounted to 20 % free. Moreover, in data set [3], the intrinsic clearance (hepatocyte CLint) came out at 11 µL/min/1e6 cells. The hepatocyte CLint at 1 µM in data set [4] was less than 1 µL/min/1e6 cells. In the data set “Solubility (Test F)”, the solubility came out at 920 µM (≈ 484 µg/mL).

The values are drawn from patent US11667602B2, “Compounds and their use” (AstraZeneca AB, priority 2020, dated 2023).
